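In this assay, cells in 96-well plates receive the compound at five concentrations for 48 hours. Endpoints are linearly interpolated between the surrounding concentrations. At the GI50, growth is halved. TGI: total growth inhibition.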
How the values were obtained:
Assay in all cases: inhibition of tumour cell growth, NCI panel, 48 h
NCI-H460 lung = tested on: NCI-H460 lung
MCF7 breast = tested on: MCF7 breast
ACHN renal = tested on: ACHN renal
HT29 colon = tested on: HT29 colon
SK-MEL-28 melanoma = tested on: SK-MEL-28 melanoma
SK-MEL-2 melanoma = tested on: SK-MEL-2 melanoma
CCRF-CEM leukemia = tested on: CCRF-CEM leukemia
LOX IMVI melanoma = tested on: LOX IMVI melanoma
M14 melanoma = tested on: M14 melanoma
SNB-75 CNS = tested on: SNB-75 CNS

For C=C1C(O)C2C(=C(CC)C13CC3)C(=O)C(C)(C)C2OC (stereo not drawn), the GI50 (NCI-H460 lung) was 39.3 µM, the TGI (NCI-H460 lung) was > 100 µM and the GI50 (MCF7 breast) was 42.4 µM. For the same compound, the TGI (MCF7 breast) was > 100 µM, the GI50 (ACHN renal) was 67.8 µM and the TGI (ACHN renal) was > 100 µM. The GI50 (HT29 colon) was > 100 µM, the TGI (HT29 colon) was > 100 µM and the GI50 (SK-MEL-28 melanoma) was > 100 µM. For the same compound, the TGI (SK-MEL-28 melanoma) was > 100 µM, the GI50 (SK-MEL-2 melanoma) was > 100 µM and the TGI (SK-MEL-2 melanoma) was > 100 µM. The GI50 (CCRF-CEM leukemia) was 27.5 µM, the TGI (CCRF-CEM leukemia) was > 100 µM and the GI50 (LOX IMVI melanoma) was 43.1 µM. The TGI (LOX IMVI melanoma) was > 100 µM, the GI50 (M14 melanoma) was 59.4 µM and the TGI (M14 melanoma) was > 100 µM.

In the case of COc1cc(OC)c2nc(C)c3c(c2c1)SCC3, the TGI (NCI-H460 lung) is reported as 54.3 µM, the TGI (MCF7 breast) is reported as 36.2 µM and the TGI (ACHN renal) is reported as 34.5 µM. For the same compound, the TGI (HT29 colon) was 99.4 µM, the TGI (SK-MEL-28 melanoma) was > 100 µM and the TGI (SK-MEL-2 melanoma) was 67.5 µM. The TGI (CCRF-CEM leukemia) was > 100 µM, the TGI (LOX IMVI melanoma) was > 100 µM and the TGI (M14 melanoma) was > 100 µM.

With Cc1ccc(S(=O)(=O)c2c(COC(=O)c3cccc(C)c3)c(-c3ccccc3)nn2C)cc1 the GI50 (NCI-H460 lung) was > 100 µM, the TGI (NCI-H460 lung) was > 100 µM and the GI50 (MCF7 breast) was > 100 µM. For the same compound, the TGI (MCF7 breast) was > 100 µM, the GI50 (ACHN renal) was > 100 µM and the TGI (ACHN renal) was > 100 µM. The GI50 (SNB-75 CNS) was > 100 µM, the TGI (SNB-75 CNS) was > 100 µM and the GI50 (HT29 colon) was > 100 µM. For the same compound, the TGI (HT29 colon) was > 100 µM, the GI50 (SK-MEL-28 melanoma) was > 100 µM and the TGI (SK-MEL-28 melanoma) was > 100 µM. For the same compound, the GI50 (CCRF-CEM leukemia) was > 100 µM, the TGI (CCRF-CEM leukemia) was > 100 µM and the GI50 (LOX IMVI melanoma) was > 100 µM. The TGI (LOX IMVI melanoma) was > 100 µM, the GI50 (M14 melanoma) was > 100 µM and the TGI (M14 melanoma) was > 100 µM.

In the case of C=C1CC2OC(=O)C(=C)C2C(O)C2C(=C)CCC12 (stereo not drawn), the TGI (NCI-H460 lung) is reported as 27.8 µM, the TGI (ACHN renal) is reported as 21.2 µM and the TGI (SNB-75 CNS) is reported as 21.5 µM. For the same compound, the TGI (HT29 colon) was 15.1 µM, the TGI (SK-MEL-28 melanoma) was 21 µM and the TGI (SK-MEL-2 melanoma) was 40.8 µM. The TGI (CCRF-CEM leukemia) was 10.2 µM.

In the case of OC1(C23CC4CC(CC(C4)C2)C3)CSCC1(O)C12CC3CC(CC(C3)C1)C2 (stereo not drawn), the TGI (SNB-75 CNS) is reported as > 100 µM, the TGI (HT29 colon) is reported as > 100 µM and the TGI (SK-MEL-28 melanoma) is reported as > 100 µM. The TGI (SK-MEL-2 melanoma) was > 100 µM, the TGI (CCRF-CEM leukemia) was > 10 µM and the TGI (M14 melanoma) was > 100 µM.

With C/C(O)=C(/C=N/C(=S)Nc1ccc(S(N)(=O)=O)cc1)C(=O)Nc1ccccc1C the TGI (NCI-H460 lung) was > 100 µM, the TGI (MCF7 breast) was > 100 µM and the TGI (ACHN renal) was > 100 µM. The TGI (HT29 colon) was > 100 µM, the TGI (SK-MEL-2 melanoma) was > 100 µM and the TGI (CCRF-CEM leukemia) was 65.9 µM. For the same compound, the TGI (LOX IMVI melanoma) was 48.8 µM and the TGI (M14 melanoma) was > 100 µM.

O=C1C(c2ccccc2)=C(O)c2cccc3cccc1c23 was tested, and the TGI (NCI-H460 lung) was > 100 µM, the TGI (ACHN renal) was > 100 µM and the TGI (SNB-75 CNS) was > 100 µM. For the same compound, the TGI (HT29 colon) was > 100 µM, the TGI (SK-MEL-28 melanoma) was > 100 µM and the TGI (SK-MEL-2 melanoma) was > 100 µM. For the same compound, the TGI (CCRF-CEM leukemia) was > 100 µM, the TGI (LOX IMVI melanoma) was > 100 µM and the TGI (M14 melanoma) was > 100 µM.

In the case of COc1c(O)c2c3c(cc(C)cc3c1C(C)C)OC2, the TGI (NCI-H460 lung) is reported as > 100 µM, the TGI (ACHN renal) is reported as > 100 µM and the TGI (SNB-75 CNS) is reported as > 100 µM. For the same compound, the TGI (HT29 colon) was > 100 µM, the TGI (SK-MEL-28 melanoma) was > 100 µM and the TGI (SK-MEL-2 melanoma) was > 100 µM. For the same compound, the TGI (CCRF-CEM leukemia) was > 100 µM, the TGI (LOX IMVI melanoma) was > 100 µM and the TGI (M14 melanoma) was > 100 µM.

In the case of COc1ccc2c(c1)C(=O)c1ccc(OC)cc1C2=S, the TGI (ACHN renal) is reported as > 100 µM, the TGI (SNB-75 CNS) is reported as 87.4 µM and the TGI (HT29 colon) is reported as > 100 µM. The TGI (SK-MEL-28 melanoma) was > 100 µM, the TGI (SK-MEL-2 melanoma) was > 100 µM and the TGI (CCRF-CEM leukemia) was > 100 µM. For the same compound, the TGI (LOX IMVI melanoma) was > 100 µM and the TGI (M14 melanoma) was > 100 µM.

Cc1ccccc1C1OC(=O)c2ccc3ccccc3c21 (stereo not drawn) showed a TGI (NCI-H460 lung) of 12.6 µM, a TGI (ACHN renal) of 28.6 µM and a TGI (SNB-75 CNS) of 31.3 µM. The TGI (HT29 colon) was > 31.6 µM, the TGI (SK-MEL-28 melanoma) was 10.1 µM and the TGI (SK-MEL-2 melanoma) was 5.98 µM. It also gave a TGI (CCRF-CEM leukemia) of 17.6 µM, a TGI (LOX IMVI melanoma) of 7.45 µM and a TGI (M14 melanoma) of 10.9 µM.

With CCOC(C[C@H](O[Si](C)(C)C(C)(C)C)[C@H]1COC(=S)S1)OCC the TGI (NCI-H460 lung) was > 100 µM, the TGI (ACHN renal) was > 100 µM and the TGI (HT29 colon) was 41.9 µM. For the same compound, the TGI (SK-MEL-28 melanoma) was > 100 µM, the TGI (CCRF-CEM leukemia) was > 100 µM and the TGI (LOX IMVI melanoma) was > 100 µM. For the same compound, the TGI (M14 melanoma) was > 100 µM.

Reference: PubChem BioAssay (NCI)
